Calls of active or inactive are those of the source. The calls are words filed in the database; no cut-off is given here.
How the values were obtained:
[1] = target: T1, von Hippel-Lindau disease tumor suppressor/Histone-lysine N-methyltransferase, H3 lysine-79 specific (Homo sapiens, UniProt Q8TEK3+P40337); assay: PROTAC activity at VHL/DOTIL in mixed-lineage leukemia rearranged (MLL-r) human THP-1 cells assessed as induction of DOT1L degradation by measuring fold change in DOTIL protein level at 0.3 uM incubated for 24 hrs by western blot analysis relative to control; assay type: cell-based
T1 sequence (P40337 whole entry, looked up): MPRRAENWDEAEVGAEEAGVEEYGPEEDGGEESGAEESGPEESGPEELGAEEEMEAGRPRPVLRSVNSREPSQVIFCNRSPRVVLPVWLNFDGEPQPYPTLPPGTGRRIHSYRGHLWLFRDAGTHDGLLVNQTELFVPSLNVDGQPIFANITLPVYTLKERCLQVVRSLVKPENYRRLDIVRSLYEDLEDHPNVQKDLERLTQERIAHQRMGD
T1 sequence (Q8TEK3 whole entry, looked up): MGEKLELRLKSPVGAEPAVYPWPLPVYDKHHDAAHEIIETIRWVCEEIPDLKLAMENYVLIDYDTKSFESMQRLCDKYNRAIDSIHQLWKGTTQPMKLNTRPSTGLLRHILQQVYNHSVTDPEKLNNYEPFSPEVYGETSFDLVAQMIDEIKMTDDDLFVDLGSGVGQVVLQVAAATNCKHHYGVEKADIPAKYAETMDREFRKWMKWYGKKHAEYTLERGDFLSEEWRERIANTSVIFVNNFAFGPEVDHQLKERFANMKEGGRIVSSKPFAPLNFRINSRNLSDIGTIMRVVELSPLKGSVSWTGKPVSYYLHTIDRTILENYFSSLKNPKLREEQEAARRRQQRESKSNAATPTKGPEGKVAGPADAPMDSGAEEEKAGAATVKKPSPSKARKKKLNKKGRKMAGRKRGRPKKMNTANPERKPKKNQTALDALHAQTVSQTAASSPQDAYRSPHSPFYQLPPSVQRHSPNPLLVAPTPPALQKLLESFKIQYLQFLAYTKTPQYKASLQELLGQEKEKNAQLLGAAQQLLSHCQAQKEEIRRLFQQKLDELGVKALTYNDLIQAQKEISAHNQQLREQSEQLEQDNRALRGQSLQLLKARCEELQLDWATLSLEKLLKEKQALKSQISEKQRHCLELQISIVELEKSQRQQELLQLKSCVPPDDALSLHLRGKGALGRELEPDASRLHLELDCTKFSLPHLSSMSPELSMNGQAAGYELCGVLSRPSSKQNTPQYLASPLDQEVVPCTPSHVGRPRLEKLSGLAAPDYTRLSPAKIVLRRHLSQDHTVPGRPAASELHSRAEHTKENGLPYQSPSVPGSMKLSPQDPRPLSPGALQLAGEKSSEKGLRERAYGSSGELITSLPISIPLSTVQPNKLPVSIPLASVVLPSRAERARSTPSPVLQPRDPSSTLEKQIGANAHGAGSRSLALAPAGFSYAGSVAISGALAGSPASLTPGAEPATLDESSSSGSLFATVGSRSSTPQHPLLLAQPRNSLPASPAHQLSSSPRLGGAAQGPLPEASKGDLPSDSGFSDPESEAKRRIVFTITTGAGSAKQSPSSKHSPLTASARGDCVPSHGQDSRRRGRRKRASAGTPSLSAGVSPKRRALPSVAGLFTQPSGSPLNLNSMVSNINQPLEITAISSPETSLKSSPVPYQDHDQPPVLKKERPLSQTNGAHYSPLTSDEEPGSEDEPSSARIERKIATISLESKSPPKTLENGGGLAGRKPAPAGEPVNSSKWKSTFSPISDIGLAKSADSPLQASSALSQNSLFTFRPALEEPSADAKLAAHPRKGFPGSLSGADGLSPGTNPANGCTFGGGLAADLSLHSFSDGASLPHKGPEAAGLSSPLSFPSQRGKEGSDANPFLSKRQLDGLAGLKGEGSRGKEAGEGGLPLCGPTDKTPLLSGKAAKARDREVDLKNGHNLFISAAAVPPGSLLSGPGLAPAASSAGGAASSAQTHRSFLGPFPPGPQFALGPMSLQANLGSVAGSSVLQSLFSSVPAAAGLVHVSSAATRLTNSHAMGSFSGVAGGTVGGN

[2] = target: T1, von Hippel-Lindau disease tumor suppressor/Histone-lysine N-methyltransferase, H3 lysine-79 specific; assay: PROTAC activity at VHL/DOTIL in mixed-lineage leukemia rearranged (MLL-r) human THP-1 cells assessed as induction of DOT1L degradation by measuring fold change in DOTIL protein level at 3 uM incubated for 24 hrs by western blot analysis relative to control; assay type: cell-based
[3] = system: MOLM-13; assay: Antiproliferative activity against mixed-lineage leukemia rearranged (MLL-r) human MOLM-13 cells assessed as inhibition of cell growth incubated for 7 days by CCK-8 assay; assay type: functional, cell-based; conditions: time 7.0 day
[4] = target: Histone-lysine N-methyltransferase, H3 lysine-79 specific (Homo sapiens) (UniProt Q8TEK3); assay: Inhibition of human DOT1L using oligonucleosomes and SAM as substrate at 4.6 nM by radiometric Hotspot assay
Chain of Histone-lysine N-methyltransferase, H3 lysine-79 specific (Homo sapiens) (Q8TEK3 whole entry, looked up): as above

[5] = system: MV4-11; assay: Antiproliferative activity against mixed-lineage leukemia rearranged (MLL-r) human MV4-11 cells assessed as inhibition of cell growth incubated for 7 days by CCK-8 assay; assay type: functional; conditions: time 7.0 day
[6] = target: Histone-lysine N-methyltransferase, H3 lysine-79 specific (Homo sapiens) (UniProt Q8TEK3); assay: Inhibition of human DOT1L using oligonucleosomes and SAM as substrate at 1.1 to 3.3 uM by radiometric Hotspot assay; conditions: dose 1.1-3.3 µM

Row | SMILES | fold change (FC) [1] | fold change (FC) [2] | inhibition [4] | inhibition [6] | Activity [3] | Activity [5]
1 | Cc1ncsc1-c1ccc(CNC(=O)[C@@H]2C[C@@H](O)CN2C(=O)[C@@H](NC(=O)CCCCNC(=O)COc2nc(N)nc(Nc3cc(S(N)(=O)=O)ccc3N[C@@H](c3cccc4c3OC(F)(F)O4)c3ncccc3Cl)n2)C(C)(C)C)cc1 | 0.99 | 1.17 | – | – | – | –
2 | CC(C)N(C[C@H]1O[C@@H](n2cnc3c(N)ncnc32)[C@H](O)[C@@H]1O)[C@H]1C[C@@H](CCc2nc3cc(C(C)(C)C)ccc3[nH]2)C1 | 1.07 | 1.03 | – | – | Active; Reduced Potency In Molm-13 Cells Relative To Mv4-11 Cells Observed | –
3 | Cc1ncsc1-c1ccc([C@H](CC(=O)NCCCCCCNC(=O)COc2nc(N)nc(Nc3cc(S(N)(=O)=O)ccc3N[C@@H](c3cccc4c3OC(F)(F)O4)c3ncccc3Cl)n2)NC(=O)[C@@H]2C[C@H](O)CN2C(=O)[C@@H](NC(=O)C2(F)CC2)C(C)(C)C)cc1 | 0.99 | 1.05 | > 95% | – | inactive | Active
4 | Cc1ncsc1-c1ccc([C@H](CC(=O)NCCNC(=O)COc2nc(N)nc(Nc3cc(S(N)(=O)=O)ccc3N[C@@H](c3cccc4c3OC(F)(F)O4)c3ncccc3Cl)n2)NC(=O)[C@@H]2C[C@@H](O)CN2C(=O)[C@@H](NC(=O)C2(F)CC2)C(C)(C)C)cc1 | 0.83 | 0.55 | – | – | – | –
5 | Cc1ncsc1-c1ccc([C@H](CC(=O)NCCCNC(=O)COc2nc(N)nc(Nc3cc(S(N)(=O)=O)ccc3N[C@@H](c3cccc4c3OC(F)(F)O4)c3ncccc3Cl)n2)NC(=O)[C@@H]2C[C@@H](O)CN2C(=O)[C@@H](NC(=O)C2(F)CC2)C(C)(C)C)cc1 | 0.72 | 0.28 | – | – | – | –
6 | Cc1ncsc1-c1ccc([C@H](CC(=O)NCCCCCNC(=O)COc2nc(N)nc(Nc3cc(S(N)(=O)=O)ccc3N[C@@H](c3cccc4c3OC(F)(F)O4)c3ncccc3Cl)n2)NC(=O)[C@@H]2C[C@@H](O)CN2C(=O)[C@@H](NC(=O)C2(F)CC2)C(C)(C)C)cc1 | 0.9 | 0.36 | – | – | – | –
7 | CC(=O)Nc1nc(Nc2cc(S(=O)(=O)NC(C)=O)ccc2N(C(C)=O)[C@@H](c2cccc3c2OC(F)(F)O3)c2ncccc2Cl)nc(OCC(=O)NCCCCCCNC(=O)C[C@H](NC(=O)C2CC(O)CN2C(=O)[C@@H](NC(=O)C2(F)CC2)C(C)(C)C)c2ccc(-c3scnc3C)cc2)n1 (single isomer, unassigned) | 1.1 | 1.11 | – | > 50% | inactive | inactive
8 | Cc1ncsc1-c1ccc(CNC(=O)[C@@H]2C[C@@H](O)CN2C(=O)[C@@H](NC(=O)CCCCCCNC(=O)COc2nc(N)nc(Nc3cc(S(N)(=O)=O)ccc3N[C@@H](c3cccc4c3OC(F)(F)O4)c3ncccc3Cl)n2)C(C)(C)C)cc1 | 0.99 | 1.17 | – | – | – | –

Further lines, with some results ahead:

Row | fold change (FC) [1] | fold change (FC) [2] | inhibition [4] | inhibition [6] | SMILES | Activity [3] | Activity [5]
9 | 0.52 | 0.56 | – | – | Cc1ncsc1-c1ccc([C@H](CC(=O)NCCCCCCCCNC(=O)COc2nc(N)nc(Nc3cc(S(N)(=O)=O)ccc3N[C@@H](c3cccc4c3OC(F)(F)O4)c3ncccc3Cl)n2)NC(=O)[C@@H]2C[C@@H](O)CN2C(=O)[C@@H](NC(=O)C2(F)CC2)C(C)(C)C)cc1 | – | –
10 | 1.01 | 0.83 | – | – | Cc1ncsc1-c1ccc(CNC(=O)[C@@H]2C[C@@H](O)CN2C(=O)[C@@H](NC(=O)CCCCCCCNC(=O)COc2nc(N)nc(Nc3cc(S(N)(=O)=O)ccc3N[C@@H](c3cccc4c3OC(F)(F)O4)c3ncccc3Cl)n2)C(C)(C)C)cc1 | – | –
11 | 1.52 | 1.11 | – | – | Cc1ncsc1-c1ccc(CNC(=O)[C@@H]2C[C@@H](O)CN2C(=O)[C@@H](NC(=O)CCCCCNC(=O)COc2nc(N)nc(Nc3cc(S(N)(=O)=O)ccc3N[C@@H](c3cccc4c3OC(F)(F)O4)c3ncccc3Cl)n2)C(C)(C)C)cc1 | – | –
12 | 0.99 | 1.2 | – | – | Cc1ncsc1-c1ccc(CNC(=O)[C@@H]2C[C@@H](O)CN2C(=O)[C@@H](NC(=O)CCCNC(=O)COc2nc(N)nc(Nc3cc(S(N)(=O)=O)ccc3N[C@@H](c3cccc4c3OC(F)(F)O4)c3ncccc3Cl)n2)C(C)(C)C)cc1 | – | –
13 | 0.36 | 0.33 | – | – | Cc1ncsc1-c1ccc([C@H](CC(=O)NCCCCCCCNC(=O)COc2nc(N)nc(Nc3cc(S(N)(=O)=O)ccc3N[C@@H](c3cccc4c3OC(F)(F)O4)c3ncccc3Cl)n2)NC(=O)[C@@H]2C[C@@H](O)CN2C(=O)[C@@H](NC(=O)C2(F)CC2)C(C)(C)C)cc1 | – | –
14 | 1.29 | 1.57 | – | – | COc1nc(N)nc(Nc2cc(S(N)(=O)=O)ccc2N[C@@H](c2cccc3c2OC(F)(F)O3)c2ncccc2Cl)n1 | Active; Reduced Potency In Molm-13 Cells Relative To Mv4-11 Cells Observed | –
15 | 0.82 | 0.95 | – | – | Cc1ncsc1-c1ccc(CNC(=O)[C@@H]2C[C@@H](O)CN2C(=O)[C@@H](NC(=O)CCNC(=O)COc2nc(N)nc(Nc3cc(S(N)(=O)=O)ccc3N[C@@H](c3cccc4c3OC(F)(F)O4)c3ncccc3Cl)n2)C(C)(C)C)cc1 | – | –
16 | 0.58 | 0.6 | – | – | Cc1ncsc1-c1ccc([C@H](CC(=O)NCCCCNC(=O)COc2nc(N)nc(Nc3cc(S(N)(=O)=O)ccc3N[C@@H](c3cccc4c3OC(F)(F)O4)c3ncccc3Cl)n2)NC(=O)[C@@H]2C[C@@H](O)CN2C(=O)[C@@H](NC(=O)C2(F)CC2)C(C)(C)C)cc1 | – | –
